Source: US10668076B1, “Compositions and methods of targeting mutant K-Ras” (NantBio, Inc., priority 2011, dated 2020)
pIC50: −log10 of the molar value.

Tested on: K-Ras wild type expressing 293 cells
Settings: FIG. 6B
Protocol: SW480 and HT29 cells are both propagated at 37° C./5% CO2 and in RPMI+10% fetal bovine serum (FBS) and DMEM+10% FBS, respectively. Upon plating cells in microtiter plates, compounds are supplemented at various concentrations and viability is assessed within 24-72 hrs by manual or automated (Countess (Invitrogen)) trypan blue cytometry.

For `Cc1ccc(Nc2nc(N/N=C/c3cccc([N+](=O)[O-])c3O)nc(N3CCOCC3)n2)cc1` [A0383, 2-(hydroxynitroso)-6-[(1E)-(2-{4-[(4-methylphenyl)amino]-6-(morpholin-4-yl)-1,3,5-triazin-2-yl}hydrazin-1-ylidene)methyl]phenol], the general toxicity (293 cells not overexpressing mutant K-Ras, dosages 50-100 µM) was “lack of general toxicity” and the pIC50 (read-out: IC50 (cell death, unspecific toxicity), K-Ras wild type expressing 293 cells) was < 4.00.
